From ChEMBL document CHEMBL2073936, “A novel human hepatic organic anion transporting polypeptide (OATP2). Identification of a liver-specific human organic anion transporting polypeptide and identification of rat and human hydroxymethylglutaryl-CoA reductase inhibitor transporters” (J Biol Chem, 1999)

How the values were obtained:
[1] = target: T1, Solute carrier organic anion transporter family member 1A1 (Rattus norvegicus, UniProt P46720); assay: TP_TRANSPORTER: inhibition of Pravastatin uptake (Pravastatin: 0.5 uM, BMS243887: 50 uM) in Oatp1-expressing 293c18 cells; assay type: functional, cell-based; settings: human, hek293-ebna
T1 sequence (P46720 whole entry): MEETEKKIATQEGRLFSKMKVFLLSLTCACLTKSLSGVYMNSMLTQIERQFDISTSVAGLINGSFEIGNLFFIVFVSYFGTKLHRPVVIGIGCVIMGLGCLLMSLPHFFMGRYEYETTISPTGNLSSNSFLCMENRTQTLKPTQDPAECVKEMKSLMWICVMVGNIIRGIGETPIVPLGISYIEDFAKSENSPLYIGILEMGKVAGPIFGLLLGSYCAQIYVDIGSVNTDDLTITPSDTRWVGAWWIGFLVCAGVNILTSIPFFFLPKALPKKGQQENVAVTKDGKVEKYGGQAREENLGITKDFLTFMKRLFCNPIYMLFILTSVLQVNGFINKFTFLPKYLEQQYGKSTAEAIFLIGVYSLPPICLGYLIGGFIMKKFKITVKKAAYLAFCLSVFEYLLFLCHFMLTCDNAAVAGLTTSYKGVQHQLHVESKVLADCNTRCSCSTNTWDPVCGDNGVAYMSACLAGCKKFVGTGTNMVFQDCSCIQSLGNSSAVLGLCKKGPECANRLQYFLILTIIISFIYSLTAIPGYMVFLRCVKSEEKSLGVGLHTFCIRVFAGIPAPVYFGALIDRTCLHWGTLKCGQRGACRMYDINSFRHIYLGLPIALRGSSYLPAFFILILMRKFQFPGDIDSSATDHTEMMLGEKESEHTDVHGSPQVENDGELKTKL

[2] = target: T2, Solute carrier organic anion transporter family member 1B1 (Homo sapiens, UniProt Q9Y6L6); assay: TP_TRANSPORTER: inhibition of Pravastatin uptake (Pravastatin: 0.5 uM, BMS243887: 50 uM) in OATP-C-expressing 293c18 cells; assay type: functional, cell-based; settings: hek293-ebna
T2 sequence (Q9Y6L6 whole entry): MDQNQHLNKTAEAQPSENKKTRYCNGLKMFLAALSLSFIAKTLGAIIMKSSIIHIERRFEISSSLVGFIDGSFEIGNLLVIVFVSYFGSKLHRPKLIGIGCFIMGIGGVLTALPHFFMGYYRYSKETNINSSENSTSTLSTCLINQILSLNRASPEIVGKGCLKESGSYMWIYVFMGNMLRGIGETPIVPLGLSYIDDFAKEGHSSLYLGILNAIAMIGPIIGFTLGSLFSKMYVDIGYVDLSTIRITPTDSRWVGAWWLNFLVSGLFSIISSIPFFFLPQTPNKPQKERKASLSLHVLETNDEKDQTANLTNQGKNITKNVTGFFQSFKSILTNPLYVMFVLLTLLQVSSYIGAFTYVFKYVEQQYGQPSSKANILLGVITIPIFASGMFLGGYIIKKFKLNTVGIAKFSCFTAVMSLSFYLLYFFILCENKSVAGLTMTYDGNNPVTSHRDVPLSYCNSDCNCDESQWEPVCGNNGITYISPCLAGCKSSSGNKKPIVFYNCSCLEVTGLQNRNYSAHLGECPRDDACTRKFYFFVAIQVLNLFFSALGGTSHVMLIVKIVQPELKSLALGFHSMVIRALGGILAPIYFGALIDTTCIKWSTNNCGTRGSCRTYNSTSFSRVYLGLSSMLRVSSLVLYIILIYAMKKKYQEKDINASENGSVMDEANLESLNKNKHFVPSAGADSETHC

[3] = target: T1, Solute carrier organic anion transporter family member 1A1; assay: TP_TRANSPORTER: inhibition of Taurocholate uptake (Taurocholate: 0.5 uM, BMS243887: 50 uM) in Oatp1-expressing 293c18 cells; assay type: functional, cell-based; settings: human, hek293-ebna
[4] = target: T2, Solute carrier organic anion transporter family member 1B1; assay: TP_TRANSPORTER: inhibition of Taurocholate uptake (Taurocholate: 0.5 uM, BMS243887: 50 uM) in OATP-C-expressing 293c18 cells; assay type: functional, cell-based; settings: hek293-ebna
[5] = target: T2, Solute carrier organic anion transporter family member 1B1; assay: TP_TRANSPORTER: inhibition of Pravastatin uptake (Pravastatin: 0.5 uM, Atorvastatin: 50 uM) in OATP-C-expressing 293c18 cells; assay type: functional, cell-based; settings: hek293-ebna
[6] = target: T1, Solute carrier organic anion transporter family member 1A1; assay: TP_TRANSPORTER: inhibition of Taurocholate uptake (Taurocholate: 0.5 uM, Atorvastatin: 50 uM) in Oatp1-expressing 293c18 cells; assay type: functional, cell-based; settings: human, hek293-ebna
[7] = target: T2, Solute carrier organic anion transporter family member 1B1; assay: TP_TRANSPORTER: inhibition of Taurocholate uptake (Taurocholate: 0.5 uM, Atorvastatin: 50 uM) in OATP-C-expressing 293c18 cells; assay type: functional, cell-based; settings: hek293-ebna
[8] = target: T1, Solute carrier organic anion transporter family member 1A1; assay: TP_TRANSPORTER: inhibition of Pravastatin uptake (Pravastatin: 0.5 uM, Atorvastatin: 50 uM) in Oatp1-expressing 293c18 cells; assay type: functional, cell-based; settings: human, hek293-ebna
[9] = target: T1, Solute carrier organic anion transporter family member 1A1; assay: TP_TRANSPORTER: inhibition of Pravastatin uptake (Pravastatin: 0.5 uM, BMS241423: 50 uM) in Oatp1-expressing 293c18 cells; assay type: functional, cell-based; settings: human, hek293-ebna
[10] = target: T2, Solute carrier organic anion transporter family member 1B1; assay: TP_TRANSPORTER: inhibition of Pravastatin uptake (Pravastatin: 0.5 uM, BMS241423: 50 uM) in OATP-C-expressing 293c18 cells; assay type: functional, cell-based; settings: hek293-ebna
[11] = target: T1, Solute carrier organic anion transporter family member 1A1; assay: TP_TRANSPORTER: inhibition of Taurocholate uptake (Taurocholate: 0.5 uM, BMS241423: 50 uM) in Oatp1-expressing 293c18 cells; assay type: functional, cell-based; settings: human, hek293-ebna
[12] = target: T2, Solute carrier organic anion transporter family member 1B1; assay: TP_TRANSPORTER: inhibition of Taurocholate uptake (Taurocholate: 0.5 uM, BMS241423: 50 uM) in OATP-C-expressing 293c18 cells; assay type: functional, cell-based; settings: hek293-ebna
[13] = target: T2, Solute carrier organic anion transporter family member 1B1; assay: (§1) TP_TRANSPORTER: uptake in OATP-C-expressing 293c18 cells; assay type: functional, cell-based; settings: hek293-ebna
[14] = target: T2, Solute carrier organic anion transporter family member 1B1; assay: TP_TRANSPORTER: inhibition of Pravastatin uptake (Pravastatin: 0.5 uM, Lovastatin: 50 uM) in OATP-C-expressing 293c18 cells; assay type: functional, cell-based; settings: hek293-ebna
[15] = target: T1, Solute carrier organic anion transporter family member 1A1; assay: TP_TRANSPORTER: inhibition of Taurocholate uptake (Taurocholate: 0.5 uM, Lovastatin: 50 uM) in Oatp1-expressing 293c18 cells; assay type: functional, cell-based; settings: human, hek293-ebna
[16] = target: T1, Solute carrier organic anion transporter family member 1A1; assay: TP_TRANSPORTER: inhibition of Pravastatin uptake (Pravastatin: 0.5 uM, Lovastatin: 50 uM) in Oatp1-expressing 293c18 cells; assay type: functional, cell-based; settings: human, hek293-ebna
[17] = target: T2, Solute carrier organic anion transporter family member 1B1; assay: TP_TRANSPORTER: inhibition of Taurocholate uptake (Taurocholate: 0.5 uM, Lovastatin: 50 uM) in OATP-C-expressing 293c18 cells; assay type: functional, cell-based; settings: hek293-ebna
[18] = target: T1, Solute carrier organic anion transporter family member 1A1; assay: TP_TRANSPORTER: inhibition of Pravastatin uptake (Pravastatin: 0.5 uM, DHEAS: 50 uM) in Oatp1-expressing 293c18 cells; assay type: functional, cell-based; settings: human, hek293-ebna
[19] = target: T1, Solute carrier organic anion transporter family member 1A1; assay: TP_TRANSPORTER: inhibition of Taurocholate uptake (Taurocholate: 0.5 uM, DHEAS: 50 uM) in Oatp1-expressing 293c18 cells; assay type: functional, cell-based; settings: human, hek293-ebna
[20] = target: T1, Solute carrier organic anion transporter family member 1A1; assay: TP_TRANSPORTER: inhibition of Taurocholate uptake (Taurocholate: 0.5 uM, Simvastatin: 50 uM) in Oatp1-expressing 293c18 cells; assay type: functional, cell-based; settings: human, hek293-ebna
[21] = target: T1, Solute carrier organic anion transporter family member 1A1; assay: TP_TRANSPORTER: inhibition of Pravastatin uptake (Pravastatin: 0.5 uM, Simvastatin: 50 uM) in Oatp1-expressing 293c18 cells; assay type: functional, cell-based; settings: human, hek293-ebna
[22] = substrate: CC[C@H](C)C(=O)O[C@H]1C[C@H](O)C=C2C=C[C@H](C)[C@H](CC[C@@H](O)C[C@@H](O)CC(=O)O)[C@H]21; assay: as §1; assay type: functional, cell-based, HEK293-EBNA
[23] = substrate: CC[C@H](C)C(=O)O[C@H]1C[C@H](O)C=C2C=C[C@H](C)[C@H](CC[C@@H](O)C[C@@H](O)CC(=O)O)[C@H]21; assay: TP_TRANSPORTER: uptake in Oatp1-expressing 293c18 cells; assay type: functional, cell-based, HEK293-EBNA

In the case of CC(C)c1c(C(=O)Nc2ccccc2O)c(-c2ccccc2)c(-c2ccc(F)cc2)n1CC[C@@H](O)C[C@@H](O)CC(=O)O, the Activity [1] is reported as “inhibitor [+]”, the Activity [2] is reported as “inhibitor [+]” and the Activity [3] is reported as “inhibitor [+]”. The Activity [4] was “inhibitor [+]”.

In the case of CC(C)c1c(C(=O)Nc2ccccc2)c(-c2ccccc2)c(-c2ccc(F)cc2)n1CC[C@@H](O)C[C@@H](O)CC(=O)O [ATORVASTATIN], the Activity [5] is reported as “inhibitor [+]”, the Activity [6] is reported as “inhibitor [+]” and the Activity [7] is reported as “inhibitor [+]”. The Activity [8] was “inhibitor [+]”.

For CC(C)c1c(C(=O)Nc2ccc(O)cc2)c(-c2ccccc2)c(-c2ccc(F)cc2)n1CC[C@H](O)C[C@H](O)CC(=O)O [BMS241423], the Activity [9] was “inhibitor [+]”, the Activity [10] was “inhibitor [+]” and the Activity [11] was “inhibitor [+]”. The Activity [12] was “inhibitor [+]”.

With N[C@@H](Cc1cc(I)c(Oc2cc(I)c(O)c(I)c2)c(I)c1)C(=O)O [LEVOTHYROXINE] the Activity [13] was “substrate [+]”.

For CC[C@H](C)C(=O)O[C@H]1C[C@@H](C)C=C2C=C[C@H](C)[C@H](CC[C@@H]3C[C@@H](O)CC(=O)O3)[C@H]21 [LOVASTATIN], the Activity [14] was “inhibitor [+]”, the Activity [15] was “inhibitor [+]” and the Activity [16] was “inhibitor [+]”. The Activity [17] was “inhibitor [+]”.

With C[C@]12CC[C@H](OS(=O)(=O)O)CC1=CC[C@@H]1[C@@H]2CC[C@]2(C)C(=O)CC[C@@H]12 [PRASTERONE SULFURIC ACID] the Activity [18] was “inhibitor [+]”, the Activity [19] was “inhibitor [+]” and the Activity [13] was “substrate [+]”.

With CCC(C)(C)C(=O)O[C@H]1C[C@@H](C)C=C2C=C[C@H](C)[C@H](CC[C@@H]3C[C@@H](O)CC(=O)O3)[C@H]21 [SIMVASTATIN] the Activity [20] was “inhibitor [+]” and the Activity [21] was “inhibitor [+]”.

B1: Solute carrier organic anion transporter family member 1B1 (Homo sapiens) (protein)
chain: MDQNQHLNKTAEAQPSENKKTRYCNGLKMFLAALSLSFIAKTLGAIIMKSSIIHIERRFEISSSLVGFIDGSFEIGNLLVIVFVSYFGSKLHRPKLIGIGCFIMGIGGVLTALPHFFMGYYRYSKETNINSSENSTSTLSTCLINQILSLNRASPEIVGKGCLKESGSYMWIYVFMGNMLRGIGETPIVPLGLSYIDDFAKEGHSSLYLGILNAIAMIGPIIGFTLGSLFSKMYVDIGYVDLSTIRITPTDSRWVGAWWLNFLVSGLFSIISSIPFFFLPQTPNKPQKERKASLSLHVLETNDEKDQTANLTNQGKNITKNVTGFFQSFKSILTNPLYVMFVLLTLLQVSSYIGAFTYVFKYVEQQYGQPSSKANILLGVITIPIFASGMFLGGYIIKKFKLNTVGIAKFSCFTAVMSLSFYLLYFFILCENKSVAGLTMTYDGNNPVTSHRDVPLSYCNSDCNCDESQWEPVCGNNGITYISPCLAGCKSSSGNKKPIVFYNCSCLEVTGLQNRNYSAHLGECPRDDACTRKFYFFVAIQVLNLFFSALGGTSHVMLIVKIVQPELKSLALGFHSMVIRALGGILAPIYFGALIDTTCIKWSTNNCGTRGSCRTYNSTSFSRVYLGLSSMLRVSSLVLYIILIYAMKKKYQEKDINASENGSVMDEANLESLNKNKHFVPSAGADSETHC
B1 showed a Km [22] of 33.7 µM.

B2: Solute carrier organic anion transporter family member 1A1 (Rattus norvegicus) (protein)
chain: MEETEKKIATQEGRLFSKMKVFLLSLTCACLTKSLSGVYMNSMLTQIERQFDISTSVAGLINGSFEIGNLFFIVFVSYFGTKLHRPVVIGIGCVIMGLGCLLMSLPHFFMGRYEYETTISPTGNLSSNSFLCMENRTQTLKPTQDPAECVKEMKSLMWICVMVGNIIRGIGETPIVPLGISYIEDFAKSENSPLYIGILEMGKVAGPIFGLLLGSYCAQIYVDIGSVNTDDLTITPSDTRWVGAWWIGFLVCAGVNILTSIPFFFLPKALPKKGQQENVAVTKDGKVEKYGGQAREENLGITKDFLTFMKRLFCNPIYMLFILTSVLQVNGFINKFTFLPKYLEQQYGKSTAEAIFLIGVYSLPPICLGYLIGGFIMKKFKITVKKAAYLAFCLSVFEYLLFLCHFMLTCDNAAVAGLTTSYKGVQHQLHVESKVLADCNTRCSCSTNTWDPVCGDNGVAYMSACLAGCKKFVGTGTNMVFQDCSCIQSLGNSSAVLGLCKKGPECANRLQYFLILTIIISFIYSLTAIPGYMVFLRCVKSEEKSLGVGLHTFCIRVFAGIPAPVYFGALIDRTCLHWGTLKCGQRGACRMYDINSFRHIYLGLPIALRGSSYLPAFFILILMRKFQFPGDIDSSATDHTEMMLGEKESEHTDVHGSPQVENDGELKTKL
Work on B2 yielded a Km [23] of 30 µM.
